# Substitutions are numbered along the chain they refer to.
# How the values were obtained:
# [1] = molecular target: T1, Type-2 angiotensin II receptor (Homo sapiens, UniProt P50052); test: […] inhibitory concentration against AT2 receptor of human adrenal membrane
# T1 sequence (P50052 whole entry): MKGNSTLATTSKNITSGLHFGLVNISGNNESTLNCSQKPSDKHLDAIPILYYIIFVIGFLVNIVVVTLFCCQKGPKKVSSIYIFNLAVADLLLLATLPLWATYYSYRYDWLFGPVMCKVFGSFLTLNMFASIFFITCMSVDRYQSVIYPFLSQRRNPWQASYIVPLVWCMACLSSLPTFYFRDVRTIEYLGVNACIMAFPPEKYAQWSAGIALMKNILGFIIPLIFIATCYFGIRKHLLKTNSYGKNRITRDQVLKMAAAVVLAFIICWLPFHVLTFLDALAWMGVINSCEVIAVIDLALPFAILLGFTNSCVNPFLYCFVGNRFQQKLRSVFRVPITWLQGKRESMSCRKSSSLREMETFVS
# [2] = molecular target: T2, Type-2 angiotensin II receptor (Rattus norvegicus, UniProt P35351); test: […] inhibitory concentration against AT2 receptor of rat adrenal membrane
# T2 sequence (P35351 whole entry): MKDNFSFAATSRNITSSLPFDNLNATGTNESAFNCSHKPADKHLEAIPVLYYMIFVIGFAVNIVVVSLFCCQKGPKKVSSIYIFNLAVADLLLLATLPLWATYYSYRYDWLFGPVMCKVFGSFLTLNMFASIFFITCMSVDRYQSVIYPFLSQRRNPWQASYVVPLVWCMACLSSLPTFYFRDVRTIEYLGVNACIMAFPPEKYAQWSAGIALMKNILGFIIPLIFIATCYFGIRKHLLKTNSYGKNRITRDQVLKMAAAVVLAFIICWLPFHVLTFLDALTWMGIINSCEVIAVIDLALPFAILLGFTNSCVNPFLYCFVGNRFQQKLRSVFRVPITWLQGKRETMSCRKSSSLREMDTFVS
# [3] = molecular target: T3, Type-1 angiotensin II receptor (Oryctolagus cuniculus, UniProt P34976); test: […] inhibitory concentration against Angiotensin II receptor, type 1 of rabbit aorta membrane
# T3 sequence (P34976 whole entry): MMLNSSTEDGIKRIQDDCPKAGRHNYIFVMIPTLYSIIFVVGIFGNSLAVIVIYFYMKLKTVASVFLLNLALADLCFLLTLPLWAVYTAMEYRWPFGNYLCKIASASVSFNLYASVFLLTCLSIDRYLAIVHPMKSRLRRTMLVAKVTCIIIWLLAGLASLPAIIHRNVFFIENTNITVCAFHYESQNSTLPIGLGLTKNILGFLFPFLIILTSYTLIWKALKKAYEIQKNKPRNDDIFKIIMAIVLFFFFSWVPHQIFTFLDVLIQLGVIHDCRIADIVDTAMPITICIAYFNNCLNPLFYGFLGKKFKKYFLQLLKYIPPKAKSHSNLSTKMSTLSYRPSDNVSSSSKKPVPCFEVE
# [4] = molecular target: T2, Type-2 angiotensin II receptor; test: […] inhibitory concentration against Angiotensin II, type 2 of rat midbrain membrane
# [5] = molecular target: T4, Angiotensin II receptor (AT-1) type-1 (Rattus norvegicus, UniProt P29089+P25095); test: […] inhibitory concentration against Angiotensin II receptor, type 1 of rat adrenal membrane
# T4 sequence (P29089 whole entry): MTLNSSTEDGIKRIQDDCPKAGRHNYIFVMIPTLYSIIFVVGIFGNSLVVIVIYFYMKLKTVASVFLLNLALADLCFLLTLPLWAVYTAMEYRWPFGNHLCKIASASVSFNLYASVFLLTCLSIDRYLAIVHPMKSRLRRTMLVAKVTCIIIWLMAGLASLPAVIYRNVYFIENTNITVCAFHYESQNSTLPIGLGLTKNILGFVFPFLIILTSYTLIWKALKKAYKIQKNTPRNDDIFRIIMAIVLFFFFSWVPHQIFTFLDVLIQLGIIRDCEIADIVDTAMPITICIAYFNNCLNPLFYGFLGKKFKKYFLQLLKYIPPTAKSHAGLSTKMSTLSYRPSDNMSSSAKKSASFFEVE
# T4 sequence (P25095 whole entry): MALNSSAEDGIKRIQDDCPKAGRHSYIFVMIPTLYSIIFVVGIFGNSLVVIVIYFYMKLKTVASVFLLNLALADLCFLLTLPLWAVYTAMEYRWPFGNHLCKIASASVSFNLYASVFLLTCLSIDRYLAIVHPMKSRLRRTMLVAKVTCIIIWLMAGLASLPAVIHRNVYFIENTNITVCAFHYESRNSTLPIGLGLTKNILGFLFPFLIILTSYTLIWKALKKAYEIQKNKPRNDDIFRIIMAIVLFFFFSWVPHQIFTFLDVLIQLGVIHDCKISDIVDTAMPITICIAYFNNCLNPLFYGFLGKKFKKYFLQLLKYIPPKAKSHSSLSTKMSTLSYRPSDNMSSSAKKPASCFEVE
# Canis familiaris [6] = test: In vivo inhibition of angiotensin II induced pressor response in dogs at a dose of 1.0 mg/Kg after 6 hr administered intravenously; assay type: functional; conditions: Canis lupus familiaris, iv
# Rattus norvegicus [7] = test: In vivo inhibition of angiotensin II induced pressor response in rats at a dose of 1.0 mg/Kg after 6 hr administered intravenously; assay type: functional; conditions: iv
# Oryctolagus cuniculus = organism: Oryctolagus cuniculus; test: Ratio of inhibitory concentration against AT2 receptor of rat midbrain to AT1 receptor of rabbit aorta
# [8] = molecular target: Angiotensin II receptor (Homo sapiens) (UniProt P30556+P50052); test: Ratio of inhibitory concentration against AT2 receptor and AT1 receptor of human adrenal membrane
# Chain of Angiotensin II receptor (Homo sapiens) (P30556 whole entry, looked up, one chain of several): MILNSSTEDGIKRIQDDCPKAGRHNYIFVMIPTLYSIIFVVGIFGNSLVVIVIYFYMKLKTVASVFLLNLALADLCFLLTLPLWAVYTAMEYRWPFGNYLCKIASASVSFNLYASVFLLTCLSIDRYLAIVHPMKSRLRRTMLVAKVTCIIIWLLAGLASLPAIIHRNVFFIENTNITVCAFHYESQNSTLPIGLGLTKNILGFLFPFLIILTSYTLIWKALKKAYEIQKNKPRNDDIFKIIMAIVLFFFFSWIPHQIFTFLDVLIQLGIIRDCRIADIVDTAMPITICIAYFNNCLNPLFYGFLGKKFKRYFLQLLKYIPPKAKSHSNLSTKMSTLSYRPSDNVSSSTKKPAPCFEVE
# [9] = molecular target: Angiotensin II receptor (Rattus norvegicus) (UniProt P29089+P25095+P35351); test: Ratio of inhibitory concentration against AT2 receptor and AT1 receptor of rat adrenal membrane
# [10] = molecular target: T5, Type-1 angiotensin II receptor (Homo sapiens, UniProt P30556); test: […] inhibitory concentration against Angiotensin II receptor, type 1 of human adrenal membrane
# T5 sequence (P30556 whole entry): T3 sequence (P34976 whole entry) with M2I, A49V, V254I, V270I, H272R, K311R, S349T, V353A
# Rattus norvegicus [11] = test: In vivo inhibition of angiotensin II induced pressor response in rats at a dose of 1.0 mg/Kg administered intravenously; assay type: functional; conditions: iv
# Canis familiaris [12] = test: In vivo inhibition of angiotensin II induced pressor response in dogs at a dose of 1.0 mg/Kg administered intravenously; assay type: functional; conditions: Canis lupus familiaris, iv
SMILES,IC50 [1],IC50 [2],IC50 [3],IC50 [4],IC50 [5],inhibition in vivo at 1 mg/kg (Canis familiaris [6]),inhibition in vivo at 1 mg/kg (Rattus norvegicus [7]),Ratio (Oryctolagus cuniculus),Ratio [8],Ratio [9],IC50 [10],inhibition in vivo at 1 mg/kg (Rattus norvegicus [11]),inhibition in vivo at 1 mg/kg (Canis familiaris [12])
CCc1nc2ccc(NC(=O)N(C)C(C)C)cc2c(=O)n1Cc1ccc(-c2ccccc2S(=O)(=O)NC(=O)OCCC2CC2)cc1F,6.2 nM,0.77 nM,0.57 nM,0.39 nM,0.5 nM,48%,62%,1.2,0.87,1.83,8.1 nM,91%,89%
Cc1nc2ccc(NC(=O)N(C)C(C)C)cc2c(=O)n1Cc1ccc(-c2ccccc2S(=O)(=O)NC(=O)OCCC(C)C)cc1F,12.5 nM,0.72 nM,2.3 nM,1.05 nM,0.58 nM,–,–,0.45,0.47,1.24,26.5 nM,–,–
Cc1nc2ccc(NC(=O)N(C)C)cc2c(=O)n1Cc1ccc(-c2ccccc2S(=O)(=O)NC(=O)OCCC2CC2)cc1F,12 nM,2.4 nM,2.3 nM,6.6 nM,2.3 nM,–,–,3.3,0.96,1.2,12 nM,–,–
CCNC(=O)Nc1ccc2nc(CC)n(Cc3ccc(-c4ccccc4S(=O)(=O)NC(=O)OCCC4CC4)cc3F)c(=O)c2c1,9.8 nM,0.8 nM,0.73 nM,0.56 nM,0.64 nM,–,–,0.97,0.77,0.92,12 nM,–,–

# Reference: ChEMBL document CHEMBL1150477, “Development of angiotensin II antagonists with equipotent affinity for human AT1 and AT2 receptor subtypes” (Bioorg Med Chem Lett, 1994)
